# Target: T1, TRAP1 enzyme (Homo sapiens, UniProt Q12931)
# T1 sequence (Q12931 60-704): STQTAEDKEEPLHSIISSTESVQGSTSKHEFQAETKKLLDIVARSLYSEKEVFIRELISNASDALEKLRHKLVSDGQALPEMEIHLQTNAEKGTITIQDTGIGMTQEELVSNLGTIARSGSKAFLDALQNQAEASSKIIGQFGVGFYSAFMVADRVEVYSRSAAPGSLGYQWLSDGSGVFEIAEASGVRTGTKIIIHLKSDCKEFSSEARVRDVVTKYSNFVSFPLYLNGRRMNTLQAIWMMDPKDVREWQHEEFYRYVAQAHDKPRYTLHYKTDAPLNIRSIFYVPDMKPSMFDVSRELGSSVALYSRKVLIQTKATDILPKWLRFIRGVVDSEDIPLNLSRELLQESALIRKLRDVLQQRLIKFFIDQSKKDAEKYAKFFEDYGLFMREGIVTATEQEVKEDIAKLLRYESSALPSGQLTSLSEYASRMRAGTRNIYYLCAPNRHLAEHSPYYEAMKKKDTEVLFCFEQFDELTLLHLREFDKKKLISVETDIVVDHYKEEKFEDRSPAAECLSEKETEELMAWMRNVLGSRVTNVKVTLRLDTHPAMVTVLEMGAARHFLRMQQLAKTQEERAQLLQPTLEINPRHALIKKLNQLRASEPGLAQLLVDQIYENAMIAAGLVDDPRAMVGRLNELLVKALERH
# Experiment: Malachite green phosphate assay of TRAP1 ATPase activity
# Assay type: biochemical
# Settings: for EC50: TRAP1 ATPase activation, 150 nM Trap1, 20 μM ATP, geometric mean, read-out: Malachite Green Fluor DRC: GeoMean EC50; for Emax: read-out: Malachite Green Fluor DRC: Mean Emax
# Experimental: The Potency of test compounds to modulate the ATPase activity of TRAP1 enzyme was evaluated using malachite green phosphatase assay. The assay is based on quantification of the green complex formed between Malachite Green, molybdate and inorganic phosphate generated in the phosphatase reaction. Assays were performed using a Malachite Green assay kit. All the assays were carried out in a 96-well transparent plate. The buffer used was 50 mM HEPES (pH 7.5), 20 mM KCl, 4 mM MgCl2 and 0.05% BSA. 150 nM Trap1 enzyme was incubated with various concentrations of the test compound (0.78 μM-100 μM) at 37° C. for 30 mins. 20 μM ATP was added to each well (except blank wells) to start the reaction and the plate was then incubated at 37° C. for 180 mins. 10 μl of the reaction volume of each sample was then transferred to a white 384-well proxiplate in quadruplets. 2.5 μl of Malachite Green reagent was added to all the wells and the plate was equilibrated for 15 mins. The reaction was stopped by adding 12% H2SO4 and the plate was read for fluorescence at 620 nm (λex=573 nm). The amount of phosphate released was estimated from a phosphate standard curve generated at the same experimental conditions. Emax (Maximal percent activation) and EC50 (concentration of test compound for half maximal activation) were estimated by fitting the dose response data to a sigmoidal curve fitting equation using Graphpad Prism software V.7.0.
EC50 [µM],Emax [%],Structure (SMILES)
< 10,160 to 199,O=C(Nc1cccc(S(=O)(=O)N2CCOc3cc(Cl)ccc32)c1)c1ncc(-c2ccccc2)o1 [Compound 477]
< 10,160 to 199,CCc1ccc(NC(=O)c2cnc(-c3ccccc3)[nH]2)cc1S(=O)(=O)Nc1ccc(Br)cc1 [Compound 170]
20 to 100,200 to 300,"NCCCCCCOc1ccc(NC(=O)c2cnc[nH]2)cc1S(=O)(=O)Nc1ccc(Br)cc1 [Compound 356, N-(4-((6-aminohexyl)oxy)-3-(N-(4-bromophenyl)sulfamoyl)phenyl)-1H-imidazole-4-carboxamide]"
< 10,123 to 159,COc1ccc(NC(=O)c2cnc(-c3ccc(Cl)cc3)[nH]2)cc1S(=O)(=O)Nc1ccc(Br)cc1 [Compound 415]
20 to 100,200 to 300,"COc1ccc(NC(=O)c2cnc[nH]2)cc1S(=O)(=O)N(CCCCCCO)c1ccc(Br)cc1 [Compound 246, N-(3-(N-(4-bromophenyl)-N-(6-hydroxyhexyl)sulfamoyl)-4-methoxyphenyl)-1H-imidazole-5-carboxamide]"
10 to 20,160 to 199,COc1ccc(NC(=O)c2csc(-c3ccccc3)n2)cc1S(=O)(=O)Nc1ccc(Cl)cc1 [Compound 487]
10 to 20,160 to 199,COc1ccc(NC(=O)c2ccccc2C(F)(F)F)cc1S(=O)(=O)N1CCCCC1 [Compound 41]
10 to 20,160 to 199,"COc1ccc(NC(=S)c2ncc(-c3ccccc3)o2)cc1S(=O)(=O)Nc1ccc(Cl)cc1 [Compound 583, N-(3-(N-(4-chlorophenyl)sulfamoyl)-4-methoxyphenyl)-5-phenyloxazole-2-carbothioamide]"
20 to 100,200 to 300,COc1ccc(NC(=O)c2nccs2)cc1S(=O)(=O)Nc1ccc(Cl)cc1 [Compound 349]
< 10,160 to 199,COc1ccc(NC(=O)c2ncco2)cc1S(=O)(=O)Nc1ccc(Br)cc1 [Compound 172]
20 to 100,200 to 300,"COc1ccc(NC(=S)c2ncco2)cc1S(=O)(=O)Nc1ccc(Cl)cc1 [Compound 598, N-(3-(N-(4-chlorophenyl)sulfamoyl)-4-methoxyphenyl) oxazole-2-carbothioamide]"
< 10,200 to 300,COc1ccc(NC(=O)c2cnc(-c3ccccc3)[nH]2)cc1S(=O)(=O)Nc1ccc(F)cc1 [Compound 171]
10 to 20,160 to 199,CCOC(=O)CCCCCN(c1ccc(Br)cc1)S(=O)(=O)c1cc(NC(=O)c2cnc(C(F)(F)F)[nH]2)ccc1OC [Compound 263]
20 to 100,200 to 300,CCc1ccc(NC(=O)c2ncco2)cc1S(=O)(=O)Nc1ccc(C(F)(F)F)cc1 [Compound 316]
20 to 100,160 to 199,COc1ccc(NC(=O)c2ccc(-c3ccccc3)o2)cc1S(=O)(=O)Nc1ccc(Cl)cc1 [Compound 499]
< 10,160 to 199,COc1ccc(NC(=O)c2nnc(-c3ccccc3)o2)cc1S(=O)(=O)Nc1c(Cl)cccc1Cl [Compound 469]
20 to 100,200 to 300,CCOC(=O)Cc1ccc(NC(=O)c2ncco2)cc1S(=O)(=O)Nc1ccc(Br)cc1 [Compound 332]
10 to 20,160 to 199,COc1ccc(NC(=O)c2ncco2)cc1S(=O)(=O)N(CCCCCCO)c1ccc(Br)cc1 [Compound 255]
10 to 20,160 to 199,CCOC(=O)Cc1ccc(NC(=O)c2cnccc2C)cc1S(=O)(=O)Nc1ccc(C)cc1 [Compound 317]
< 10,160 to 199,COc1ccc(NC(=O)c2cnc(-c3ccccc3)[nH]2)cc1S(=O)(=O)Nc1ccc(Cl)cc1 [Compound 404]
20 to 100,160 to 199,COc1ccc(NC(=O)c2cnc[nH]2)cc1S(=O)(=O)N(CCOCCOCCOCCN)c1ccc(Br)cc1 [Compound 546]

EC50 [µM],Emax [%],Structure (SMILES)
< 10,123 to 159,CC(C)c1ccc(NC(=O)c2ncc(-c3ccccc3)o2)cc1S(=O)(=O)Nc1ccc(Cl)cc1 [Compound 580]
20 to 100,200 to 300,"COc1ccc(NC(=O)c2cnc(C(F)(F)F)[nH]2)cc1S(=O)(=O)N(CCCCN1CCOCC1)c1ccc(Br)cc1 [Compound 430, N-(3-(N-(4-bromophenyl)-N-(4-morpholinobutyl)sulfamoyl)-4-methoxyphenyl)-2-(trifluoromethyl)-1H-imidazole-5-carboxamide]"
10 to 20,200 to 300,O=C(Nc1ccc(OCCCCCCO)c(S(=O)(=O)Nc2ccc(Br)cc2)c1)c1cnc[nH]1 [Compound 274]
20 to 100,200 to 300,COc1ccc(NC(=O)c2cnc(C(F)(F)F)[nH]2)cc1S(=O)(=O)Nc1ccc(F)cc1C [Compound 348]
< 10,200 to 300,CCc1ccc(NC(=O)c2cnc(C(F)(F)F)[nH]2)cc1S(=O)(=O)Nc1ccc(Br)cc1 [Compound 216]
20 to 100,200 to 300,CC1(C)CCN(S(=O)(=O)c2cccc(NC(=O)c3cnc(-c4ccccc4)[nH]3)c2)c2ccc(Cl)cc21 [Compound 534]
10 to 20,123 to 159,CCc1ccc(NC(=O)c2cnccc2C)cc1S(=O)(=O)Nc1ccc(C)cc1 [Compound 277]
20 to 100,160 to 199,COc1ccc(NC(=O)c2cn(C)c(C(F)(F)F)n2)cc1S(=O)(=O)Nc1ccc(Br)cc1 [Compound 364]
20 to 100,123 to 159,COc1ccc(NC(=O)c2ncco2)cc1S(=O)(=O)N1CCOCC1 [Compound 309]
10 to 20,200 to 300,CCc1ccc(NC(=O)c2nnc(-c3ccccc3)[nH]2)cc1S(=O)(=O)Nc1ccc(Cl)cc1 [Compound 595]
20 to 100,160 to 199,"COc1ccc(NC(=O)c2ncc(C(F)(F)F)[nH]2)cc1S(=O)(=O)Nc1ccc(Br)cc1 [Compound 229, N-(3-(N-(4-bromophenyl)sulfamoyl)-4-methoxyphenyl)-5-(trifluoromethyl)-1H-imidazole-2-carboxamide]"
10 to 20,200 to 300,COc1ccc(NC(=O)c2nccs2)cc1S(=O)(=O)Nc1ccc(Br)cc1 [Compound 304]
20 to 100,200 to 300,O=C(Nc1cccc(S(=O)(=O)N2CCOc3cc(Cl)ccc32)c1)c1ncco1 [Compound 367]
20 to 100,160 to 199,COc1ccc(NC(=O)c2cnccc2C)cc1S(=O)(=O)Nc1ccc(C)cc1 [Compound 54]
10 to 20,160 to 199,Cc1ncoc1C(=O)Nc1cccc(S(=O)(=O)N2CCOc3cc(Cl)ccc32)c1 [Compound 479]
10 to 20,200 to 300,COc1ccc(NC(=O)c2nc(Br)ccc2C)cc1S(=O)(=O)Nc1ccc(Cl)cc1 [Compound 537]
< 10,160 to 199,COc1ccc(NC(=O)c2cnc(C(F)(F)F)[nH]2)cc1S(=O)(=O)N(CCCCCC[P+](c1ccccc1)(c1ccccc1)c1ccccc1)c1ccc(Br)cc1 [Compound 260]
< 10,160 to 199,Cc1cccc(C)c1NS(=O)(=O)c1cc(NC(=O)c2cnc(-c3ccccc3)[nH]2)ccc1F [Compound 436]
10 to 20,160 to 199,CCOC(=O)Cc1ccc(NC(=O)c2ncc(-c3ccccc3)o2)cc1S(=O)(=O)Nc1ccc(Cl)cc1 [Compound 558]
< 10,123 to 159,CCc1ccc(NC(=O)c2ncc(-c3ccccc3)o2)cc1S(=O)(=O)Nc1ccc(Cl)nc1 [Compound 548]

# From patent US20230174523A1, “BENZENESULFONAMIDE DERIVATIVES AS TRAP1 MODULATORS AND USES THEREOF” (Amathus Therapeutics, Inc., priority 2020, published 2023)
